Patent US8916565B2, “Pyrrolopyrazine-spirocyclic piperidine amides as modulators of ion channels” (priority 2011, dated 2014)

The molecules below were run against human NaV subtype, like NaV 1.7 (Homo sapiens, UniProt Q15858) (assay: E-VIPR optical membrane potential assay with electrical stimulation). Details: active against one or more sodium channels; Table 3 does not name the assay or NaV subtype; read-out: Binned Activity Data (IC50).
Sequence of human NaV subtype, like NaV 1.7 (Q15858 whole entry): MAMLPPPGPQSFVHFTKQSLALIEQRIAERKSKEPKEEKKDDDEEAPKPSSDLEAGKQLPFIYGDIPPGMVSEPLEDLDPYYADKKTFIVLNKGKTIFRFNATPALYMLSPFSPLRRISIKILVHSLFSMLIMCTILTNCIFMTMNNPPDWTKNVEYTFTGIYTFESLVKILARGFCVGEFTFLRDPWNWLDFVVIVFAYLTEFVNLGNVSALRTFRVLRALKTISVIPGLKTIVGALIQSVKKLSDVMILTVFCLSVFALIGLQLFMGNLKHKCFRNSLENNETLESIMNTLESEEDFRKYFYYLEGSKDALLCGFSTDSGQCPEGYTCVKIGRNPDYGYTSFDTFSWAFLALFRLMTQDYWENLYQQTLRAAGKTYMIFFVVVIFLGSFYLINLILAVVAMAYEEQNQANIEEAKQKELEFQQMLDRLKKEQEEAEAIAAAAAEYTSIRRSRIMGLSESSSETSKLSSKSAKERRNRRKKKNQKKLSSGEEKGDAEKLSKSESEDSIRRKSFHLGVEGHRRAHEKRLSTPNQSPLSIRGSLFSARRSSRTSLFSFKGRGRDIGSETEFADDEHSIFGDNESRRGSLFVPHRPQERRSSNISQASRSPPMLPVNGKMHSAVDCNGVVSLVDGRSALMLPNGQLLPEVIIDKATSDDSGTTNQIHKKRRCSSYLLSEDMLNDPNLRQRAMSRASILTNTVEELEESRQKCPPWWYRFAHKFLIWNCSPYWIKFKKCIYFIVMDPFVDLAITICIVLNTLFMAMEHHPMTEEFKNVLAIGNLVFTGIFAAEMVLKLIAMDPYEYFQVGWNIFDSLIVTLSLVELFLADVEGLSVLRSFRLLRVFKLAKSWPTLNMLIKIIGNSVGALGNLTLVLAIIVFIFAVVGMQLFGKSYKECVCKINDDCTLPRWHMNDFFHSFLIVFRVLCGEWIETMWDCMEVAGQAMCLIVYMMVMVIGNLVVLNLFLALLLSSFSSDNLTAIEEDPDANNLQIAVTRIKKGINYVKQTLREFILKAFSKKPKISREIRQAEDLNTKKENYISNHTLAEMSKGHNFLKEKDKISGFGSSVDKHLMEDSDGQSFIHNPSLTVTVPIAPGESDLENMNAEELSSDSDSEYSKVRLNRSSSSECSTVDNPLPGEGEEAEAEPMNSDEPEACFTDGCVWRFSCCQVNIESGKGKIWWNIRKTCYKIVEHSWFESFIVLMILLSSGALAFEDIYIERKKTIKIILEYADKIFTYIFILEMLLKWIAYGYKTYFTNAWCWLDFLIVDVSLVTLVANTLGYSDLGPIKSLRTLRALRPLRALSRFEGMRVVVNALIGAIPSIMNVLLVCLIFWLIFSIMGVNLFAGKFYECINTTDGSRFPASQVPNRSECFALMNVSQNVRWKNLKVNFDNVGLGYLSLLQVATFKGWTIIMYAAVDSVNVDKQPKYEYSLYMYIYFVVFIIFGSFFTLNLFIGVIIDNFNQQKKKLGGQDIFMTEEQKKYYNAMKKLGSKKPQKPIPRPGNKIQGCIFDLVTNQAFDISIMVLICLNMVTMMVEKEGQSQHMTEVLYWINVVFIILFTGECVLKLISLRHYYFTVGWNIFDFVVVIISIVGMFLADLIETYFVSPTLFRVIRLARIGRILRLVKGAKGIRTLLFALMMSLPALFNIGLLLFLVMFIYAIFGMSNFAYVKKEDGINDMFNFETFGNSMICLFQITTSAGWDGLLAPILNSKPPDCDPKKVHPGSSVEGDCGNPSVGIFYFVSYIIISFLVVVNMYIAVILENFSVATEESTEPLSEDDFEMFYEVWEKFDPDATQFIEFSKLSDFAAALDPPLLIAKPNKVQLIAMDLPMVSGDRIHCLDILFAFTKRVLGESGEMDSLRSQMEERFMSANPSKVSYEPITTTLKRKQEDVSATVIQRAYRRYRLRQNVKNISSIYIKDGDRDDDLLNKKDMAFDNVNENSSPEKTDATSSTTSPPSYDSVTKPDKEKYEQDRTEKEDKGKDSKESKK
Assay type: cell-based
Excerpt: Assays for Detecting and Measuring NaV Inhibition Properties of Compound E-VIPR Optical Membrane Potential Assay Method with Electrical Stimulation
Sodium channels are voltage-dependent proteins that can be activated by inducing membrane voltage changes by applying electric fields. The electrical stimulation instrument and methods of use are described in Ion Channel Assay Methods PCT/US01/21652, herein incorporated by reference and are referred to as E-VIPR. The instrument comprises a microtiter plate handler, an optical system for exciting the coumarin dye while simultaneously recording the coumarin and oxonol emissions, a waveform generator, a current- or voltage-controlled amplifier, and a device for inserting electrodes in well. Under integrated computer control, this instrument passes user-programmed electrical stimulus protocols to cells within the wells of the microtiter plate.
24 hours before the assay on E-VIPR, HEK cells expressing human NaV subtype, like NaV 1.7, are seeded in 384-well poly-lysine coated plates at 15,000-20,000 cells per well. Other subtypes are performed in an analogous mode in a cell line expressing the NaV of interest. HEK cells are grown in media (exact composition is specific to each cell type and NaV subtype) supplemented with 10% FBS (Fetal Bovine Serum, qualified; GibcoBRL #16140-071) and 1% Pen-Strep (Penicillin-Streptomycin; GibcoBRL #15140-122). Cells are grown in vented cap flasks, in 90% humidity and 10% CO2, to 100% confluence. They are usually split by trypsinization 1:10 or 1:20, depending on scheduling needs, and grown for 2-3 days before the next split.
Bath 1 buffer. Glucose 10 mM (1.8 g/L), Magnesium Chloride (Anhydrous), 1 mM (0.095 g/L), Calcium Chloride, 2 mM (0.222 g/L), HEPES 10 mM (2.38 g/L), Potassium Chloride, 4.5 mM (0.335 g/L), Sodium Chloride 160 mM (9.35 g/L).
Hexyl Dye Solution: Bath 1 Buffer+0.5% β-cyclodextrin (make this prior to use, Sigma #C4767), 8 μM CC2-DMPE+2.5 μM DiSBAC6(3). To make the solution Add volume of 10% Pluronic F127 stock equal to volumes of CC2-DMPE+DiSBAC6(3). The order of preparation is first mix Pluronic and CC2-DMPE, then add DiSBAC6(3) while vortexing, then add Bath 1+β-Cyclodextrin.
1) Pre-spot compounds (in neat DMSO) into compound plates. Vehicle control (neat DMSO), the positive control (20 mM DMSO stock tetracaine, 125 μM final in assay) and test compounds are added to each well at 160× desired final concentration in neat DMSO. Final compound plate volume will be 80 μL (80-fold intermediate dilution from 1 μL DMSO spot; 160-fold final dilution after transfer to cell plate). Final DMSO concentration for all wells in assay is 0.625%.
2) Prepare Hexyl Dye Solution.
3) Prepare cell plates. On the day of the assay, medium is aspirated and cells are washed three times with 100 μL of Bath 1 Solution, maintaining 25 μL residual volume in each well.
4) Dispense 25 μL per well of Hexyl Dye Solution into cell plates. Incubate for 20-35 minutes at room temp or ambient conditions.
5) Dispense 80 μL per well of Bath 1 into compound plates. Acid Yellow-17 (1 mM) is added and Potassium Chloride can be altered from 4.5 to 20 mM depending on the NaV subtype and assay sensitivity.
6) Wash cell plates three times with 100 μL per well of Bath1, leaving 25 μL of residual volume. Then transfer 25 uL per well from Compound Plates to Cell Plates. Incubate for 20-35 minutes at room temp/ambient condition
7) Read Plate on E-VIPR. Use the current-controlled amplifier to deliver stimulation wave pulses for typically 9 seconds and a scan rate of 400 Hz. A pre-stimulus recording is performed for 0.5 seconds to obtain the un-stimulated intensities baseline. The stimulatory waveform is applied for 9 seconds followed by 0.5 seconds of post-stimulation recording to examine the relaxation to the resting state.
An IC50 of at most 2 µM was found for CC1(C)Cn2c(C(=O)C(F)(F)F)ccc2C2(CCN(C(=O)c3ccc(S(=O)(=O)C4CC4)cc3)CC2)N1 [Compound 197] in this work.
An IC50 of at most 2 µM was found for Cc1nc(C(=O)N2CCC3(CC2)c2c(Cl)cc(C(F)(F)F)n2CCN3C)ccc1OC(C)C [Compound 261] in this work.
An IC50 of at most 2 µM was found for CC(C)COc1ccc(C(=O)N2CCC3(CC2)c2ccc(C(=O)C(F)(F)F)n2CCN3C)cc1 [Compound 501] in this work.
An IC50 of at most 2 µM was found for CCCOc1ccc(C(=O)N2CCC3(CC2)c2ccc(C(F)(F)F)n2CCN3C)cc1OC [Compound 190] in this work.
An IC50 of at most 2 µM was found for CC1Cn2c(C(F)(F)F)ccc2C2(CCN(C(=O)c3ccc(OC(C)C)c(F)c3)CC2)N1 (stereo not shown) [Compound 692] in this work.
An IC50 of at most 2 µM was found for CC(C)Oc1ccc(C(=O)N2CCC3(CC2)c2ccc(C(=O)C(F)(F)F)n2CCN3C)cc1F [Compound 40] in this work.
An IC50 of over 5 µM was found for CC(=O)c1ccc2n1CCN(C)C21CCN(C(=O)c2ccc(C(C)(C)O)c(F)c2)CC1 [Compound 703] in this work.
An IC50 of at most 2 µM was found for Cc1cc(C(=O)N2CCC3(CC2)c2c(Cl)cc(C(F)(F)F)n2CCN3C)ccc1OC(C)C [Compound 560] in this work.
An IC50 of at most 2 µM was found for CN1CCn2c(C(F)(F)F)ccc2C12CCN(C(=O)c1cccnc1N1CCC(F)C1)CC2 (stereo not shown) [Compound 518] in this work.
An IC50 of at most 2 µM was found for CN1CCn2c(C(=O)C3CC3)ccc2C12CCN(C(=O)c1ccc(C3CCCCC3)cc1)CC2 [Compound 66] in this work.
An IC50 of at most 2 µM was found for CC(C)Oc1ccc(C(=O)N2CCC3(CC2)c2ccc(C(=O)C(F)(F)F)n2C(C)CN3C)cc1Cl (stereo not shown) [Compound 325] in this work.
An IC50 of over 5 µM was found for CC(=O)c1ccc2n1C(C)(C)CN(C)C21CCN(C(=O)c2ccc(C(C)(C)O)c(F)c2)CC1 [Compound 225] in this work.
An IC50 of over 5 µM was found for CCCc1ccc(C(=O)N2CCC3(CC2)c2ccc(C(C)=O)n2CCN3C)cc1 [Compound 292] in this work.
An IC50 of 2 to 5 µM was found for Cc1cc(C(=O)N2CCC3(CC2)c2ccc(C(=O)C(F)(F)F)n2CCN3C)ccc1-c1cnn(C)c1 [Compound 383] in this work.
An IC50 of 2 to 5 µM was found for CC[C@H](C)Oc1ccc(C(=O)N2CCC3(CC2)c2ccc(Cl)n2CCN3C)cc1OC [Compound 38] in this work.
An IC50 of at most 2 µM was found for COc1ccc(C(=O)N2CCC3(CC2)c2ccc(C(=O)C(C)(C)C)n2CCN3C)cc1C(F)(F)F [Compound 566] in this work.
An IC50 of 2 to 5 µM was found for CN1CCn2c(Cl)ccc2C12CCN(C(=O)c1ccc(S(=O)(=O)NC3CC3)cc1)CC2 [Compound 352] in this work.
An IC50 of at most 2 µM was found for CC1(C)Cn2c(C(=O)C(F)(F)F)ccc2C2(CCN(C(=O)c3ccc(S(=O)(=O)NC4CC4)cc3)CC2)N1 [Compound 442] in this work.
An IC50 of at most 2 µM was found for COc1cc(C(=O)N2CCC3(CC2)N[C@H]2CCCC[C@H]2n2cccc23)ccc1OCCC(C)C [Compound 247] in this work.
An IC50 of at most 2 µM was found for CCOc1cc(C(=O)N2CCC3(CC2)c2ccc(C(F)(F)F)n2CCN3C)ccc1CO [Compound 579] in this work.
An IC50 of at most 2 µM was found for Cc1cc(C(=O)N2CCC3(CC2)c2ccc(C(F)(F)F)n2CCN3C(=O)N(C)C)ccc1OC(C)C [Compound 138] in this work.
An IC50 of at most 2 µM was found for Cc1cc(C(=O)N2CCC3(CC2)c2ccc(C(=O)C(F)(F)F)n2CCN3C)ccc1C(C)(C)O [Compound 266] in this work.
An IC50 of over 5 µM was found for COc1ccc(C(=O)N2CCC3(CC2)c2ccc(C(=O)C(F)(F)F)n2CCN3C)cc1F [Compound 121] in this work.
An IC50 of at most 2 µM was found for CC(C)Oc1ccc(C(=O)N2CCC3(CC2)NCC(C)(C)n2c(C(F)(F)F)ccc23)cc1F [Compound 337] in this work.
An IC50 of 2 to 5 µM was found for CCCOc1ccc(C(=O)N2CCC3(CC2)c2ccc(Cl)n2CCN3C)cc1OC [Compound 698] in this work.
An IC50 of at most 2 µM was found for Cc1nc(C(=O)N2CCC3(CC2)NCC(C)n2c(C(=O)C(F)(F)F)ccc23)ccc1OC(C)C (stereo not shown) [Compound 198] in this work.
An IC50 of over 5 µM was found for COc1ccc(C(=O)N2CCC3(CC2)NC(C)(C)Cn2c(C(C)=O)ccc23)cc1C(F)(F)F [Compound 633] in this work.
An IC50 of over 5 µM was found for Cc1ccc(C(=O)N2CCC3(CC2)c2ccc(C(=O)C(F)(F)F)n2CCN3C)cc1O [Compound 597] in this work.
An IC50 of at most 2 µM was found for CCCCOc1ccc(C(=O)N2CCC3(CC2)c2ccc(C(=O)C(F)(F)F)n2CCN3C)cc1 [Compound 592] in this work.
An IC50 of at most 2 µM was found for Cc1cc(C(=O)N2CCC3(CC2)c2ccc(C(F)(F)F)n2CCN3C)ccc1C1COC1 [Compound 658] in this work.
An IC50 of at most 2 µM was found for CN1CCn2c(C(=O)C(F)(F)F)ccc2C12CCN(C(=O)c1ccc(-c3ccccc3)c(F)c1)CC2 [Compound 717] in this work.
An IC50 of at most 2 µM was found for CCOC(=O)N1CCn2c(C#N)ccc2C12CCN(C(=O)c1ccc(OC(C)C)c(Cl)c1)CC2 [Compound 296] in this work.
An IC50 of over 5 µM was found for COc1cc(C(=O)N2CCC3(CC2)c2ccc(C(F)(F)F)n2CCN3C)ccc1OCCO [Compound 440] in this work.
An IC50 of at most 2 µM was found for CC(C)c1ccc(C(=O)N2CCC3(CC2)c2ccc(C(=O)C(F)(F)F)n2CCN3C)cc1 [Compound 290] in this work.
An IC50 of over 5 µM was found for CC(=O)c1ccc2n1CCN(C)C21CCN(C(=O)c2ccc(S(=O)(=O)NC3CC3)cc2)CC1 [Compound 532] in this work.
An IC50 of over 5 µM was found for Cc1cc(C(=O)N2CCC3(CC2)c2ccc(C(=O)C(C)(C)C)n2CCN3C)ccc1S(C)(=O)=O [Compound 682] in this work.
An IC50 of at most 2 µM was found for C=C(C)c1ccc(C(=O)N2CCC3(CC2)c2ccc(C(F)(F)F)n2CCN3C)cc1C [Compound 316] in this work.
An IC50 of at most 2 µM was found for CN1CCn2c(C(=O)C(F)(F)F)ccc2C12CCN(C(=O)c1ccc(N3CCCCC3)cc1)CC2 [Compound 582] in this work.
An IC50 of 2 to 5 µM was found for CN1CCn2c(C(F)(F)F)cc(Cl)c2C12CCN(C(=O)c1ccc(C(C)(C)O)cc1)CC2 [Compound 469] in this work.
An IC50 of 2 to 5 µM was found for COc1ccc(C(=O)N2CCC3(CC2)c2ccc(C(=O)C(F)(F)F)n2C[C@@H](C)N3C)cc1C(F)(F)F [Compound 61] in this work.
An IC50 of at most 2 µM was found for CC1(C)Cn2c(C(=O)C(F)(F)F)ccc2C2(CCN(C(=O)c3ccc(S(=O)(=O)C(F)(F)F)cc3)CC2)N1 [Compound 396] in this work.
An IC50 of at most 2 µM was found for Cc1cc(C(=O)N2CCC3(CC2)c2ccc(C(F)(F)C(F)(F)F)n2CCN3C)ccc1C(C)(C)O [Compound 647] in this work.
An IC50 of at most 2 µM was found for COc1cc(C(=O)N2CCC3(CC2)c2c(F)cc(C(F)(F)F)n2CCN3C)ccc1OC(F)F [Compound 113] in this work.
An IC50 of at most 2 µM was found for CC(C)Oc1ccc(C(=O)N2CCC3(CC2)c2ccc(C(F)(F)C(F)(F)F)n2CCN3C)cc1Cl [Compound 664] in this work.
An IC50 of at most 2 µM was found for CC(C)Oc1ccc(C(=O)N2CCC3(CC2)c2ccc(Cl)n2CCN3C)cc1C(F)(F)F [Compound 599] in this work.
An IC50 of at most 2 µM was found for CCc1ccc(C(=O)N2CCC3(CC2)c2ccc(C(F)(F)F)n2CCN3CCOC)cc1OC [Compound 80] in this work.
An IC50 of at most 2 µM was found for CC(C)Oc1ccc(C(=O)N2CCC3(CC2)NC(C)(C)Cn2c(C(F)(F)F)ccc23)cc1Cl [Compound 37] in this work.
An IC50 of at most 2 µM was found for COCCN1CCn2c(C(F)(F)F)ccc2C12CCN(C(=O)c1ccc(C(C)(C)O)cc1)CC2 [Compound 701] in this work.
An IC50 of at most 2 µM was found for CC(C)CCOc1ccc(C(=O)N2CCC3(CC2)NCC(C)n2c(C(=O)C(F)(F)F)ccc23)cc1 (stereo not shown) [Compound 284] in this work.
An IC50 of over 5 µM was found for CC1CCN(S(=O)(=O)c2ccc(C(=O)N3CCC4(CC3)c3ccc(Cl)n3CCN4C)cc2)CC1 [Compound 310] in this work.
An IC50 of at most 2 µM was found for CNC(=O)N1CCn2c(C(F)(F)F)ccc2C12CCN(C(=O)c1ccc(OC(C)C)c(Cl)c1)CC2 [Compound 419] in this work.
An IC50 of at most 2 µM was found for CNS(=O)(=O)c1ccc(C(=O)N2CCC3(CC2)c2ccc(C(F)(F)F)n2CCN3C)cc1 [Compound 716] in this work.
An IC50 of 2 to 5 µM was found for CN1CCn2c(C(=O)C(F)(F)F)ccc2C12CCN(C(=O)c1ccc(-c3ccccc3)c(O)c1)CC2 [Compound 287] in this work.
An IC50 of 2 to 5 µM was found for CC(=O)c1ccc2n1CCN(C)C21CCN(C(=O)c2ccc(OCC3CC3)c(F)c2)CC1 [Compound 329] in this work.
An IC50 of 2 to 5 µM was found for COCCOc1ccc(C(=O)N2CCC3(CC2)c2ccc(C(=O)C(F)(F)F)n2CCN3C)cc1OC [Compound 640] in this work.
